In US6677331B2, “Carbapenem derivatives” (Meiji Seika Kaisha, Ltd., priority 1998, dated 2004):
Values after ≈ are worked out from the molar mass of the structure shown.

Columns and labels:
mouse DHP-I = target: T1, mouse DHP-I (Mus musculus, UniProt P31428); assay: Test 2: stability against DHP-I (mouse); conditions: partly purified Mouse DHP-I; 100 μg (titer)/ml; 37° C., 3 hours; HPLC
T1 sequence (P31428 17-384): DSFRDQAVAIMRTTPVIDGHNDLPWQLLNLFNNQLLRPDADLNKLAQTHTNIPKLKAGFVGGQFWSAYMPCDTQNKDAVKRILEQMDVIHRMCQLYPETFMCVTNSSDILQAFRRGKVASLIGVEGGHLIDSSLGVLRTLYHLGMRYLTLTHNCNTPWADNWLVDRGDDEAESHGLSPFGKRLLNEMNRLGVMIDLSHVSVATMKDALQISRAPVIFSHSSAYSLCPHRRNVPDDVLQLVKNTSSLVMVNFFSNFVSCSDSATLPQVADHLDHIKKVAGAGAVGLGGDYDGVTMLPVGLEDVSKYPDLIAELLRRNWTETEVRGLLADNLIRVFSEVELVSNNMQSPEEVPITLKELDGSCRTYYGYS

porcine renal DHP-I = target: T2, porcine renal DHP-I (Sus scrofa, UniProt P22412); assay: Test 2: stability against DHP-I (porcine); conditions: partly purified Porcine DHP-I, 100 μg (titer)/ml, 37° C., HPLC
T2 sequence (P22412 17-384): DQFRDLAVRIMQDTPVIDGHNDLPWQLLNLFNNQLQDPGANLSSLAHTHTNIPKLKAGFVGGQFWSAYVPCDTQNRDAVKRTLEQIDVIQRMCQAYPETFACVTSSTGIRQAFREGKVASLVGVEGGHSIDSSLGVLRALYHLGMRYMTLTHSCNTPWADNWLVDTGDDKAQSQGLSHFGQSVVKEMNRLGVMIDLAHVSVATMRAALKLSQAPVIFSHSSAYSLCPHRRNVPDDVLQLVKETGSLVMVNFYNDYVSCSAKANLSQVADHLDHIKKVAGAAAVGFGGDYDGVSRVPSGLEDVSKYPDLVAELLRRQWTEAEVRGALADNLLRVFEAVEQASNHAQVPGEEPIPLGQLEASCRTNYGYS

[1] = Test 5: Acute Toxicity (i.v.); type: in vivo, mice (ICR, male); conditions: mice, 2,000 mg/kg i.v.
Method: The compounds of Examples 44, 62, 88, and 111 were tested again in the same manner as the above provided that cilastatin sodium was co-administered.

E. hirae ATCC8043 = assay: Test 1: Anti-Microbial Activities (MIC); type: cell-based; conditions: Sensitivity Disk agar-N+5% Horse blood, inoculants 10^6 CFU/ml; for MIC: Enterococcus hirae, read-out: minimum inhibiting concentrations (MIC)
Method: (§1) The minimum inhibiting concentrations (MIC, μg/ml) of the compounds according to the present invention to various pathogenic bacteria was measured in accordance with the method described in CHEMOTHERAPY, vol. 16, No. 1,99, 1968. The culture medium for measurement was Sensitivity Disk agar-N+5% Horse blood, and the amount of inoculants was 10^6 CFU/ml.

H. influenzae PRC2 = assay: Test 1: Anti-Microbial Activities (MIC); type: cell-based; conditions: Sensitivity Disk agar-N+5% Horse blood, inoculants 10^6 CFU/ml; for MIC: Haemophilus influenzae, read-out: minimum inhibiting concentrations (MIC)
Method: as §1

E. coli NIHJ JC-2 = assay: Test 1: Anti-Microbial Activities (MIC); type: cell-based; conditions: inoculants 10^6 CFU/ml; for MIC: Escherichia coli, NIHJJC2, Sensitivity Disk agar-N+5% Horse blood, read-out: minimum inhibiting concentrations (MIC)
Method: as §1

S. aureus 209P JC-1 = assay: Test 1: Anti-Microbial Activities (MIC); type: cell-based; conditions: Sensitivity Disk agar-N+5% Horse blood, inoculants 10^6 CFU/ml; for MIC: Staphylococcus aureus, read-out: minimum inhibiting concentrations (MIC)
Method: as §1

S. epidermidis ATCC14990 = assay: Test 1: Anti-Microbial Activities (MIC); type: cell-based; conditions: Sensitivity Disk agar-N+5% Horse blood, inoculants 10^6 CFU/ml; for MIC: Staphylococcus epidermidis, read-out: minimum inhibiting concentrations (MIC)
Method: as §1

C. freundii GN346 = assay: Test 1: Anti-Microbial Activities (MIC); type: cell-based; conditions: Sensitivity Disk agar-N+5% Horse blood, inoculants 10^6 CFU/ml; for MIC: Citrobacter freundii, read-out: minimum inhibiting concentrations (MIC)
Method: as §1

H. influenzae PRC44 = assay: Test 1: Anti-Microbial Activities (MIC); type: cell-based; conditions: Sensitivity Disk agar-N+5% Horse blood, inoculants 10^6 CFU/ml; for MIC: Haemophilus influenzae, read-out: minimum inhibiting concentrations (MIC)
Method: as §1

P. vulgaris GN7919 = assay: Test 1: Anti-Microbial Activities (MIC); type: cell-based; conditions: Sensitivity Disk agar-N+5% Horse blood, inoculants 10^6 CFU/ml; for MIC: Proteus vulgaris, read-out: minimum inhibiting concentrations (MIC)
Method: as §1

S. pneumoniae PRC9 = assay: Test 1: Anti-Microbial Activities (MIC); type: cell-based; conditions: S. pneumoniae PRC9, penicillin-hyperresistant strain (PRSP), Sensitivity Disk agar-N+5% Horse blood, inoculants 10^6 CFU/ml; for MIC: Streptococcus pneumoniae, read-out: minimum inhibiting concentrations (MIC)
Method: as §1

M. catarrhalis W-0500 = assay: Test 1: Anti-Microbial Activities (MIC); type: cell-based; conditions: inoculants 10^6 CFU/ml; for MIC: Moraxella catarrhalis, W0500, Sensitivity Disk agar-N+5% Horse blood, read-out: minimum inhibiting concentrations (MIC)
Method: as §1

S. aureus M126 = assay: Test 1: Anti-Microbial Activities (MIC); type: cell-based; conditions: S. aureus M126, methicillin-hyperresistant strain (MRSA), Sensitivity Disk agar-N+5% Horse blood, inoculants 10^6 CFU/ml; for MIC: Staphylococcus aureus, read-out: minimum inhibiting concentrations (MIC)
Method: as §1

K. pneumoniae PCI602 = assay: Test 1: Anti-Microbial Activities (MIC); type: cell-based; conditions: Sensitivity Disk agar-N+5% Horse blood, inoculants 10^6 CFU/ml; for MIC: Klebsiella pneumoniae, read-out: minimum inhibiting concentrations (MIC)
Method: as §1

E. faecalis W-73 = assay: Test 1: Anti-Microbial Activities (MIC); type: cell-based; conditions: inoculants 10^6 CFU/ml; for MIC: Enterococcus faecalis, W73, Sensitivity Disk agar-N+5% Horse blood, read-out: minimum inhibiting concentrations (MIC)
Method: as §1

[2] = cilastatin sodium co-administered
[3] = Sensitivity Disk agar-N+5% Horse blood

Molecule	residual amounts (%) after 3 hours (mouse DHP-I) [%]	residual amounts (%) after 3 hours (porcine renal DHP-I) [%]	MIC (E. hirae ATCC8043) [µg/mL]	MIC (H. influenzae PRC2) [µg/mL]	MIC (E. coli NIHJ JC-2) [µg/mL]	MIC (S. aureus 209P JC-1) [µg/mL]	MIC (S. epidermidis ATCC14990) [µg/mL]	MIC (C. freundii GN346) [µg/mL]	MIC (H. influenzae PRC44) [µg/mL]	MIC (P. vulgaris GN7919) [µg/mL]	MIC (S. pneumoniae PRC9) [µg/mL]	MIC (M. catarrhalis W-0500) [µg/mL]	MIC (S. aureus M126) [µg/mL]	MIC (K. pneumoniae PCI602) [µg/mL]	MIC (E. faecalis W-73) [µg/mL]	other results
CC(=O)c1nc(C)n2cc(C3=C(C(=O)[O-])N4C(=O)[C@H]([C@@H](C)O)[C@H]4[C@H]3C)sc12.[Na+] [Example 19, Sodium (1S,5R,6S)-2-(7-Acetyl-5-methylimidazo[5,1-b]thiazol-2-yl)-6-((1R)-1-hydroxyethyl)-1-methyl-1-carbapen-2-em-3-carboxylate]	45	77														
Cc1nc(S(C)(=O)=O)c2sc(C3=C(C(=O)[O-])N4C(=O)[C@H]([C@@H](C)O)[C@H]4[C@H]3C)cn12.[Na+] [Example 44, Sodium (1S,5R,6S)-6-((1R)-1-Hydroxyethyl)-2-(7-methanesulfonyl-5-methylimidazo[5,1-b]thiazol-2-yl)-1-methyl-1-carbapen-2-em-3-carboxylate]		100	0.78	< 0.025	0.78	0.05	0.05	12.5	0.1	0.78	0.1	< 0.025	3.13	1.56	0.78	survival (acute toxicity) [1]: All of the animal survived; survival (acute toxicity) [1, 2]: All of the animal survived
C[C@@H](O)[C@H]1C(=O)N2C(C(=O)[O-])=C(c3cn4cnc([S+](C)[O-])c4s3)[C@H](C)[C@H]12.[Na+] (stereo partly drawn) [Example 26, Sodium (1S,5R,6S)-6-((1R)-1-Hydroxyethyl)-2-(7-methanesulfinylimidazo[5,1-b]thiazol-2-yl)-1-methyl-1-carbapen-2-em-3-carboxylate]	11	44	0.78	< 0.025	0.05	< 0.025	< 0.025	1.56	0.05	0.2	0.1	0.05	6.25	0.1	0.39	
C[C@@H](O)[C@H]1C(=O)N2C(C(=O)[O-])=C(c3cn4cnc(S(=O)(=O)N(C)C)c4s3)[C@H](C)[C@H]12.[Na+] [Example 88, Sodium (1S,5R,6S)-2-[7-(N,N-dimethylsulfamoyl)imidazo[5,1-b]thiazol-2-yl]-6-((1R)-1-hydroxyethyl)-1-methyl-1-carbapen-2-em-3-carboxylate]	<0.1	73	0.39	< 0.025	0.39	< 0.025	< 0.025	3.13	0.1	0.78	0.05	< 0.025	1.56	0.39	0.39	survival (acute toxicity) [1]: All of the animal survived; survival (acute toxicity) [1, 2]: All of the animal survived
(1R,5S,6S)-6-((1R)-1-hydroxyethyl)-1-methyl-2-[(3S,5S)-5-(6-methylimidazo[5,1-b]thiazolium-2-yl)methylpyrrolidin-3-yl]thiocarbapen-2-em-3-carboxylic acid iodide [Compound B, reference compound]																minimum inhibiting concentrations (MIC) (E. hirae ATCC8043): 1.56 µg/mL; minimum inhibiting concentrations (MIC) (H. influenzae PRC2): 0.10 µg/mL; minimum inhibiting concentrations (MIC) (E. coli NIHJ JC-2; [3]): 0.05 µg/mL; minimum inhibiting concentrations (MIC) (S. aureus 209P JC-1): <0.025 µg/mL; minimum inhibiting concentrations (MIC) (S. epidermidis ATCC14990): 0.05 µg/mL; minimum inhibiting concentrations (MIC) (C. freundii GN346): 0.10 µg/mL; minimum inhibiting concentrations (MIC) (H. influenzae PRC44): 0.78 µg/mL; minimum inhibiting concentrations (MIC) (P. vulgaris GN7919): 0.10 µg/mL; minimum inhibiting concentrations (MIC) (S. pneumoniae PRC9): 0.39 µg/mL; minimum inhibiting concentrations (MIC) (M. catarrhalis W-0500; [3]): <0.025 µg/mL; minimum inhibiting concentrations (MIC) (S. aureus M126): 6.25 µg/mL; minimum inhibiting concentrations (MIC) (K. pneumoniae PCI602): 0.10 µg/mL; minimum inhibiting concentrations (MIC) (E. faecalis W-73; [3]): 3.13 µg/mL
C[C@@H](O)[C@H]1C(=O)N2C(C(=O)[O-])=C(c3cn4cnc(C(=O)CO)c4s3)[C@H](C)[C@H]12.[Na+] [Example 71, Sodium (1S,5R,6S)-2-(7-Hydroxyacetylimidazo[5,1-b]thiazol-2-yl)-6-((1R)-1-hydroxyethyl)-1-methyl-1-carbapen-2-em-3-carboxylate]	<0.1	33	0.39	< 0.025	< 0.025	< 0.025	< 0.025	0.39	0.05	< 0.025	0.1	< 0.025	3.13	< 0.025	0.39	
C[C@@H](O)[C@H]1C(=O)N2C(C(=O)O)=C(S[C@@H]3CN[C@H](C(=O)N(C)C)C3)[C@H](C)[C@H]12 [Compound C, meropenem, reference compound]	8.5	41														
CCC(=O)c1ncn2cc(C3=C(C(=O)[O-])N4C(=O)[C@H]([C@@H](C)O)[C@H]4C3)sc12.[Na+] [Example 27, Sodium (5R,6S)-6-((1R)-1-Hydroxyethyl)-2-(7-propionylimidazo[5,1-b]thiazol-2-yl)-1-carbapen-2-em-3-carboxylate]	1.2	38	0.39	< 0.025	0.2	0.05	0.05	0.39	0.05	0.2	0.05	< 0.025	0.78	0.1	0.1	
C[C@@H](O)[C@H]1C(=O)N2C(C(=O)O)=C(SCCN=CN)C[C@H]12 [Compound A, imipenem, reference compound]	14	<0.3	0.78 (≈ 2.61 µM)	0.78 (≈ 2.61 µM)	0.1 (≈ 0.334 µM)	< 0.025	< 0.025	0.2 (≈ 0.668 µM)	12.5 (≈ 41.8 µM)	0.1 (≈ 0.334 µM)	0.2 (≈ 0.668 µM)	0.05 (≈ 0.167 µM)	25 (≈ 83.5 µM)	0.2 (≈ 0.668 µM)	0.78 (≈ 2.61 µM)	
